Data set [1] is described as follows: superoxide radical scavenging effect. Type of data set: biochemical. The following applies: compared to vitamin E alone. An excerpt: Refer to FIG. 2 for a schematic diagram of the anti-oxidant effect of the EGCG-nanogold complexes.
The subject of data set [2] is bladder cancer cells (MBT-2). Briefly: viability of MBT-2 cells at 48 hour post-treatment. Type of data set: cell-based. The method, then: (§1) Firstly, to evaluate the tumor cytotoxicity of EGCG and/or nanogold, we examined viabilities of bladder cancer cells (MBT-2) and African green monkey kidney cells (Vero cell acts as a normal cell) at 48 hour post-EGCG or -nanogold treatment. Referring to FIG. 3, which is a schematic diagram of the cell viability of Vero cells and MBT-2 cells under different treating concentration of EGCG and nanogold. […] Refer to FIG. 4 for a schematic diagram of the concentrations of EGCG and nanogold mediated the 50% of cell growth inhibition of Vero cell and MBT-2 cell (IC50). […] In contrast, the Vero cell numbers were not changed in the presence of EGCG or nanogold.

Data set [3] deals with African green monkey kidney cells (Vero cell). Briefly: viability of Vero cells at 48 hour post-treatment. The format is cell-based. Particulars: in the presence of EGCG or nanogold. The method, then:
as §1

For data set [4], the system named is MBT-2 cells. Briefly: apoptosis detection by Annexin-V and PI staining, flow cytometry. The following applies: in 48 hours. Type of data set: cell-based. An excerpt:
Cell apoptosis features some morphological alterations, such as chromatin condensation, membrane blebbing, inter-nucleosomal degradation of DNA, and apoptotic body formation. Previous study reported that EGCG can induce apoptosis via the PI3K/Akt pathway and Bcl-2 family proteins in T24 human bladder cancer cells. […] The cells in test were subjected to flow cytometry analysis, whereby apoptotic bodies can be detected by Annexin-V and PI staining Refer to FIG. […]
A general note: Flow cytometry measures light scatter and fluorescence of single cells or particles in a stream.

The subject of data set [5] is MBT-2 cells. Briefly: cell cycle of MBT-2 cells. The format is cell-based. The method, then: Following, the mechanism of the EGCG and nanogold mediated cell apoptosis was investigated. Refer to FIG. 7 for a table of the cell cycle of MBT-2 cell treated by various concentrations of EGCG and nanogold. […] The MBT-2 cells otherwise underwent G0/G1 arrest when the doses of EGCG (50 μM) and nanogold (2 ppm) were increased.

A further data set relates to caspase-3 and -7. Briefly: Caspase-3/7 activity in MBT-2 cells. Type of data set: cell-based. Particulars: 12 and 24 hours treatment. The method, then:
To assure that the EGCG and nanogold mediated apoptosis are triggered by the caspase effectors, we then examined expressions of the apoptosis-dependent enzymes caspase-3 and -7. Refer to FIG. 8 for a schematic diagram of Caspase-3/7 activity after EGCG and/or nanogold treatment for 12 and 24 hours.

In the case of epigallocatechin-3-gallate [EGCG], in data set [1], the “superoxide radical scavenging activity” value is “significant superoxide radical scavenging activity”. The “MBT-2 cell numbers, % of the control” value in data set [2] (EGCG and nanogold 2 ppm, combined or alone) turned out to be 49.7%. Besides, in data set [2] (different treating concentrations), the “viability of MBT-2 cells” value is “reduce the viability of MBT-2 cells in a concentration-dependent manner”. Further, the Vero cell numbers result in data set [3] was “not changed”. In addition, the “percentage of Annexin-V-positive cells” value in the data set on MBT-2 cells [4] worked out at 16.6%. Besides, the cell cycle arrest result is “G0/G1 arrest” in the data set with MBT-2 cells [5] (increased doses: EGCG 50 μM, nanogold 2 ppm) and “arrested in the S phase” in the data set with MBT-2 cells [5] (lower doses). The “caspase-3 and -7, fold increase versus the vehicle-alone controls” value in the data set with caspase-3 and -7 stood at 2.42±0.43 fold.

Values taken from patent US8759546B2, “Physical nano-complexes for preventing and treating cancer and method for manufacturing the same” (Gold Nanotech Inc., priority 2012, dated 2014).
